Test results from patent US20100105629A1, “N-Substituted Peptidomimetic Inhibitors of Dipeptidylpeptidase IV” (priority 2007, published 2010).
pIC50: −log10 of the molar value. Where two headings read alike, the source gives them in different places.

Target: T1, Dipeptidyl peptidase IV (Homo sapiens, UniProt P27487)
T1 construct: Dipeptidyl peptidase IV was purified from human placenta; from tissue; host or cells: human placenta
Test: DPP IV inhibition assay (chromogenic substrate Ala-Pro-p-nitroanalide)
Assay type: biochemical
Conditions: Xaa-N(Methyl)-boroGly series; for pIC50: 10 min incubation with enzyme, assay 25° C.; for Cyclization Index (CI): ratio of the IC50 at pH 8 and the IC50 at pH 2
Experimental: Dipeptidyl peptidase IV was purified from human placenta. Assays were performed at room temperature (25° C.) in 100 mM HEPES, pH 8.0, 0.14 M NaCl with the chromogenic substrate Ala-Pro-p-nitroanalide (Bachem) using a Molecular Devices SPECTRAmax 340PC^384 microtiter plate reader Inhibitor stocks (1 mg/mL) were prepared in 0.01 N HCl solution for pH 2.0 and in pH 8.0 HEPES buffer for pH 8.0. Both stocks were equilibrated at corresponding pH overnight at room temperature. The 1:10 dilution of inhibitor stocks was done with 0.01 N HCl for pH 2.0 and with pH 8.0 HEPES buffer for pH 8.0 immediately preceding the enzymatic reactions. Enzymatic reactions were carried out by incubating 250 μL of approximately 0.35 nM DPP IV with 30 μL of various inhibitor concentrations (ranging between 10^−3 and 10^−10 M) for 10 minutes before addition of 30 μL of 300 μM substrate. The absorbance at 410 nm was measured 30 minutes after addition of the substrate. Assays and their corresponding measurements were performed in triplicate. The negative control was prepared exactly the same as above, except that 30 μL of 0.01 N HCl was added instead of inhibitor solutions.
After a 10 minute incubation with the enzyme before addition of the substrate. The IC50 values were determined by fitting the data to a sigmoidal dose-response curve using non-linear regression in Prism 3.0 (Graph Pad).

[1] = inhibitor stock equilibrated overnight at pH 2.0 (0.01 N HCl), HEPES pH 8.0, read-out: IC50 (pH 2)
[2] = inhibitor stock equilibrated overnight at pH 8.0 (HEPES buffer), read-out: IC50 (pH 8)

T1 sequence (P27487 whole entry): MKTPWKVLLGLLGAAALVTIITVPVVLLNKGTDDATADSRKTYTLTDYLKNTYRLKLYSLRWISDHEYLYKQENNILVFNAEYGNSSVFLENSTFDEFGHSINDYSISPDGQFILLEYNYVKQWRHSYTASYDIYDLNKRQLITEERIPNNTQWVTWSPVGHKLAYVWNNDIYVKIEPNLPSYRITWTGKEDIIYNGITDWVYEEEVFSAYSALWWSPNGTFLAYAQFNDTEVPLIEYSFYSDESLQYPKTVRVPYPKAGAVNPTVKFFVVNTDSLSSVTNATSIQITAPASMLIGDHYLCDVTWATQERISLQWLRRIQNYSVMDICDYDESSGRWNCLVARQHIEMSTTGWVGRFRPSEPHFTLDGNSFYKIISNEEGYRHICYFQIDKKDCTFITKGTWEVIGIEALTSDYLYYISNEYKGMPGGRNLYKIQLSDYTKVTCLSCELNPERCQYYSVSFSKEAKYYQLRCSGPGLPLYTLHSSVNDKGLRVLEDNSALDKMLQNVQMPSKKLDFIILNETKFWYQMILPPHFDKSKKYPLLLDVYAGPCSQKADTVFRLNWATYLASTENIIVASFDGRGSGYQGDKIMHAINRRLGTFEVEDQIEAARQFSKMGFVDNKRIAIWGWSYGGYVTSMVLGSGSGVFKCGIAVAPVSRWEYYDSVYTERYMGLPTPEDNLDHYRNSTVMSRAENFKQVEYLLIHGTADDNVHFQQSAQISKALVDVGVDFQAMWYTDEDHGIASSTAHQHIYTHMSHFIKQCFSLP

Molecule	pIC50 [1]	pIC50 [2]	Cyclization Index (CI)
C[C@@H](O)[C@H](N)C(=O)N(C)CB(O)O [Thr, H-(S)-Thr-boroSar]	> 6.15	> 4.30	<100
H-(S)-N-(Me)-Ala-boroSar [N-Methyl-Ala]	> 4.12	> 3.00	<5

More lines, now with the values ahead:

pIC50 [1]	pIC50 [2]	Cyclization Index (CI)	Molecule
> 6.40	> 4.60	<100	CSCC[C@H](N)C(=O)N(C)CB(O)O [Met, H-(S)-Met-boroSar]
> 6.82	> 6.82	<1	CN(CB(O)O)C(=O)CNC(C)(C)C [N-t-Butyl-Gly, H-N-(tBu)-Gly-boroSar]
> 6.82	> 6.82	<1	CC(C)(C)C(N)C(=O)O (stereo not drawn) [t-Butyl-Gly]
